In article PMC11915509, “Small molecule inhibitors of hnRNPA2B1–RNA interactions reveal a predictable sorting of RNA subsets into extracellular vesicles” (Nucleic Acids Research, 2025):

How the values were obtained:
[1] = target: T1, GST-hnRNPA2B1 (Homo sapiens, UniProt P22626); experiment: AlphaScreen binding kinetics with EXOmotif probe; conditions: 30 nM GST-hnRNPA2B1, time frame of 2 h
T1 construct: purified a human full-length, GST-tagged protein expressed in Escherichia coli cells; made in house; host or cells: E. coli BL21 (DE3)
T1 sequence (P22626 whole entry): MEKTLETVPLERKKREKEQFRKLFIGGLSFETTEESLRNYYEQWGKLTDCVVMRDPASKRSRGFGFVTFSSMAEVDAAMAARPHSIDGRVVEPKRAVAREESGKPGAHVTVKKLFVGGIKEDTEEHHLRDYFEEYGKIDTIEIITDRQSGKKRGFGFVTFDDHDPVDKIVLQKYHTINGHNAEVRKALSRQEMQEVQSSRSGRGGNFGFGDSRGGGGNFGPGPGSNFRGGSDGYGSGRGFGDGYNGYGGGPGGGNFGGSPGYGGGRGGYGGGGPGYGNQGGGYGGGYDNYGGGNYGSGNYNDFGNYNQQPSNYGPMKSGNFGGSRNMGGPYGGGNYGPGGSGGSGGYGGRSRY
Protocol: AlphaScreen assay was used to study the interaction between hnRNA2B1 and different biotinylated single-stranded RNA probes: EXO RNA (5′-BTeg- […]), RNA 114 (5′- BTeg-[…]), and RNA 276 (5′-B-Teg- […]). The assays were performed in OptiPlate-384-well plates (PerkinElmer, 6007299) in 20 μl final volume. The ligands were diluted in AlphaBuffer [25 mM HEPES, pH 7.4, 100 mM NaCl, 0.01% bovine serum albumin (BSA)] and tested using AlphaScreen GST Detection Kit (PerkinElmer, 6760603C). For the assay optimization, different concentrations of the RNA probes (0–100 nM) were incubated with different concentrations of GST-hnRNPA2B1 (0–60 nM) in the presence of streptavidin Donor beads and anti-GST-Acceptor beads (PerkinElmer) (20 μg/ml final concentration). […]
Figure 2. […] Dissociation constants (Kd) were determined from nonlinear regression one-site binding model in GraphPad Prism®, version 9.0. […] Association (Kon) and dissociation (Koff) rate constants and equilibrium dissociation constants (koff/kon) were determined using nonlinear regression association kinetic model of multiple ligand concentration in GraphPad Prism®, version 9.0. […] Densitometric quantification of protein fractions were normalized to the input. […] (G) Distribution of positive (EXOmotif) and negative (ARE) protein–RNA probe interactions calculated in the primary drug screening. […]

[2] = test system: hnRNPA2B1 isoform; parameters: method as in PMID 29379020; conditions: hnRNPA2B1 isoform ref 45; read-out: observed Kd; cited from earlier work

Substance	association rate constant kon [1]	Kd [2]
EXOmotif: single-stranded RNA oligo 5′-GGGGAGGUUAGGGAGGAGGGGGGUAGGCGCC (RNA, backbone not given here)	523 664 M^−1min^−1	
RNA 114: RNA oligo 5′-AAGGACUAGC		0.114 µM
